This is an account of results in patent US20060128721A1, “Novel formulations of opioid-based treatments of pain comprising substituted 1,4-di-piperidin-4-yl-piperazine derivatives” (priority 2003, published 2006).

SMILES strings stand for the structures.

For experiment [1], the target named is T1, cloned human h-NK1 receptors expressed in CHO cells (Homo sapiens, UniProt P25103).
T1 construct: expressed in transfected cells; host or cells: CHO cells
Nature of the experiment: Binding experiment for h-NK1 receptors ([3H]-Substance P displacement). As to conditions: read-out: h-NK1 pIC50 (converted). The method, then:
(§1) The compounds according to the invention were investigated for interaction with various neurotransmitter receptors, ion channels and transporter binding sites using the radioligand binding technique. Membranes from tissue homogenates or from cells, expressing the receptor or transporter of interests, were incubated with a radioactively labelled substance ([^3H]- or [^125I] ligand) to label a particular receptor. […] Following incubation, labelled membranes were harvested and rinsed with excessive cold buffer to remove non-bound radioactivity by rapid filtration under suction. Membrane bound radioactivity was counted in a scintillation counter and results were expressed in counts per minute (cpm).
(§2) The compounds were dissolved in DMSO and tested at 10 concentrations ranging from 10^−10 to 10^−5 M.
(§3) The ability of the compounds according to the invention to displace [^3H]-Substance P from cloned human h-NK1 receptors expressed in CHO cells, to displace [^3H]-SR-48968 from cloned human h-NK2 receptors expressed in Sf9 cells, and to displace [^3H]-SR-142801 from cloned human h-NK3 receptors expressed in CHO cells was evaluated.

Experiment [2] deals with T2, cloned human h-NK2 receptors expressed in Sf9 cells (Homo sapiens, UniProt P21452).
T2 construct: expressed in transfected cells; host or cells: Sf9 cells
T2 sequence (P21452 1-398): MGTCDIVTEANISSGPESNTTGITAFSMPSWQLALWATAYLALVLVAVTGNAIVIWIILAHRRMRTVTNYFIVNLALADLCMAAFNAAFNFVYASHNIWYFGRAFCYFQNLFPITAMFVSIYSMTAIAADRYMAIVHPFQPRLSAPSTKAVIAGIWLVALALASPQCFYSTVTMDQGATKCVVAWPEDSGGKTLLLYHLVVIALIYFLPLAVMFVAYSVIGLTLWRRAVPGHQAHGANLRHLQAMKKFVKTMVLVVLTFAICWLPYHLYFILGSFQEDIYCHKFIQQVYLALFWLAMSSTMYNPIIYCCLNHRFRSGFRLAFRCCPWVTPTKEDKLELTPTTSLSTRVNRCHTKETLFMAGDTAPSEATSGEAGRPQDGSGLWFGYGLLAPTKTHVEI
The experiment is described as follows: Binding experiment for h-NK2 receptors ([3H]-SR-48968 displacement). The settings on record: [3H]-SR-48968, Sf9 cells; read-out: h-NK2 pIC50 (converted). The method, then: as §1, §2, §3

The target of experiment [3] is T3, cloned human h-NK3 receptors expressed in CHO cells (Homo sapiens, UniProt P29371).
T3 construct: expressed in transfected cells; host or cells: CHO cells
T3 sequence (P29371 1-465): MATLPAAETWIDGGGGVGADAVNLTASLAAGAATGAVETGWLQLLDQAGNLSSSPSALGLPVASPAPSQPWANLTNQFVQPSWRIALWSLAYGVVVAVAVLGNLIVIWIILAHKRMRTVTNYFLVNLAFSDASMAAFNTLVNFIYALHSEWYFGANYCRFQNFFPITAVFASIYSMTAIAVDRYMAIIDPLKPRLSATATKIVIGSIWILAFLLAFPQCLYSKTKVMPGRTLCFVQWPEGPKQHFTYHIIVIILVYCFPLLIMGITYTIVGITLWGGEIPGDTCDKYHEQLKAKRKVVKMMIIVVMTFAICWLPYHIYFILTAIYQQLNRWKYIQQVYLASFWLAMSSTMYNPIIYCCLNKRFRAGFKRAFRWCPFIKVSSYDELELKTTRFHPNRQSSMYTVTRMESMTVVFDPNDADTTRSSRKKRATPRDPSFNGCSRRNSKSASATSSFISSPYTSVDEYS
The experiment is described as follows: Binding experiment for h-NK3 receptors ([3H]-SR-142801 displacement). The settings on record: [3H]-SR-142801, CHO cells; read-out: h-NK3 pIC50 (converted). The method, then:
as §1, §2, §3

T1 sequence (P25103 whole entry): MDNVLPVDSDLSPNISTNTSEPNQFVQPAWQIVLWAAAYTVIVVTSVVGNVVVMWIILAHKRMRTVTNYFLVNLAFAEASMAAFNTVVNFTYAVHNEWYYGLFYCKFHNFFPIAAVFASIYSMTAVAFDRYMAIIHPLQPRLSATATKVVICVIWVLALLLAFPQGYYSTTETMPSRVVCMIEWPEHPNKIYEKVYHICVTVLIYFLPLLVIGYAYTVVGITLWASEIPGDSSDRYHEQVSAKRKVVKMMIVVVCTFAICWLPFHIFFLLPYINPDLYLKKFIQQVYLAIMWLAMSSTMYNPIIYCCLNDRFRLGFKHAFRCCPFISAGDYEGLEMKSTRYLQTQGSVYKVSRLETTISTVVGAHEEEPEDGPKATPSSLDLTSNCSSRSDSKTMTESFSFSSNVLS

As for `O=C(c1cc(C(F)(F)F)cc(C(F)(F)F)c1)N1CCC(N2CCN(C3CCN(C(=O)n4ccnc4)CC3)CC2)CC1Cc1ccccc1` (centres unmarked) [Compound 12], the values for the IC50 in experiment [1], in experiment [2] and in experiment [3] were 0.794 nM, 1000 nM and 794 nM, respectively.

Consider `O=C(c1cc(F)cc(F)c1)N1CCC(N2CCN([C@H]3CCN(C(=O)c4cc(C(F)(F)F)cc(C(F)(F)F)c4)[C@H](Cc4ccccc4)C3)CC2)CC1` [Compound 51], for which the IC50 in experiment [1] was 1.26 nM; in experiment [2], 631 nM; in experiment [3], 398 nM.

For the compound `Cc1nnsc1C(=O)N1CCC(N2CCN([C@@H]3CCN(C(=O)c4cc(C(F)(F)F)cc(C(F)(F)F)c4)[C@H](Cc4ccccc4)C3)CC2)CC1` [Compound 139], the IC50 in experiment [1] is 1.58 nM; in experiment [2] it was 794 nM; in experiment [3] it was 316 nM.

As for `O=C(c1ccccn1)N1CCC(N2CCN([C@H]3CCN(C(=O)c4cc(C(F)(F)F)cc(C(F)(F)F)c4)[C@H](Cc4ccccc4)C3)CC2)CC1` [Compound 79], the values for the IC50 in experiment [1], in experiment [2] and in experiment [3] were 6.31 nM, 316 nM and 398 nM, respectively.

As for `Cc1nnsc1C(=O)N1CCC(N2CCN([C@H]3CCN(C(=O)c4cc(C(F)(F)F)cc(C(F)(F)F)c4)[C@@H](Cc4ccccc4)C3)CC2)CC1` [Compound 140], the IC50 in experiment [1] was 3.16 nM; in experiment [2] it was 3980 nM; in experiment [3], 5010 nM.

Consider `O=C(c1cc(C(F)(F)F)cc(C(F)(F)F)c1)N1CC[C@H](N2CCN(C3CCN(c4ncccn4)CC3)CC2)C[C@H]1Cc1ccccc1` [Compound 16], for which the IC50 in experiment [1] is 1 nM; in experiment [2], 501 nM; in experiment [3], 158 nM.

Regarding `O=C(C(c1ccccc1)N1CCOCC1)N1CCC(N2CCN([C@H]3CCN(C(=O)c4cc(C(F)(F)F)cc(C(F)(F)F)c4)[C@H](Cc4ccccc4)C3)CC2)CC1` (some centres unmarked) [Compound 116], the IC50 in experiment [1] was 2.51 nM; in experiment [2], 794 nM; in experiment [3], 158 nM.

As for `CC(C)(C)OC(=O)N1CCCCC1C(=O)N1CCC(N2CCN([C@H]3CCN(C(=O)c4cc(C(F)(F)F)cc(C(F)(F)F)c4)[C@H](Cc4ccccc4)C3)CC2)CC1` (some centres unmarked) [Compound 89], the IC50 in experiment [1] was 2.51 nM; in experiment [2] it was 631 nM; in experiment [3], 631 nM.

Turning to `Cc1cc(C)cc(C(=O)N2CCC(N3CCN(C4CCN(C(=O)c5cc(C(F)(F)F)cc(C(F)(F)F)c5)C(Cc5ccccc5)C4)CC3)CC2Cc2ccccc2)c1` (single isomer, unassigned) [Compound 11], the IC50 is 39.8 nM in experiment [1], 631 nM in experiment [2] and 251 nM in experiment [3].

Regarding `O=C(c1cc(C(F)(F)F)cc(C(F)(F)F)c1)N1CCC(N2CCN(C3CCNCC3)CC2)CC1Cc1ccccc1` (centres unmarked) [Compound 2], the results for the IC50 in experiment [1], in experiment [2] and in experiment [3] were 2.51 nM, 1580 nM and 6310 nM, respectively.

Consider `NC(Cc1ccc(O)cc1)C(=O)N1CCC(N2CCN(C3CCN(C(=O)c4cc(C(F)(F)F)cc(C(F)(F)F)c4)C(Cc4ccccc4)C3)CC2)CC1` (centres unmarked) [Compound 13], for which the IC50 in experiment [1] is 1.26 nM; in experiment [2] it was 631 nM; in experiment [3] it was 1000 nM.

In the case of `COCC(=O)N1CCC(N2CCN([C@H]3CCN(C(=O)c4cc(C(F)(F)F)cc(C(F)(F)F)c4)[C@H](Cc4ccccc4)C3)CC2)CC1` [Compound 104], the IC50 was 0.631 nM in experiment [1], 1580 nM in experiment [2] and 1580 nM in experiment [3].

As to `COc1ccc(C)cc1S(=O)(=O)N1CCC(N2CCN(C3CCN(C(=O)c4cc(C(F)(F)F)cc(C(F)(F)F)c4)C(Cc4ccccc4)C3)CC2)CC1` (centres unmarked) [Compound 119], the IC50 in experiment [1] was 25.1 nM; in experiment [2] it was 1000 nM; in experiment [3] it was 1000 nM.

As for `Cn1cccc1CN1CCC(N2CCN(C3CCN(C(=O)c4cc(C(F)(F)F)cc(C(F)(F)F)c4)C(Cc4ccccc4)C3)CC2)CC1` (centres unmarked) [Compound 9], the figures for the IC50 in experiment [1], in experiment [2] and in experiment [3] were 1.26 nM, 631 nM and 501 nM, respectively.

`COc1cc(CC(=O)N2CCC(N3CCN([C@H]4CCN(C(=O)c5cc(C(F)(F)F)cc(C(F)(F)F)c5)[C@H](Cc5ccccc5)C4)CC3)CC2)cc(OC)c1OC` [Compound 106]: the IC50 in experiment [1] is 1 nM; in experiment [2], 1000 nM; in experiment [3], 501 nM.

For `O=C(C(c1ccccc1)N1CCCC1)N1CCC(N2CCN(C3CCN(C(=O)c4cc(C(F)(F)F)cc(C(F)(F)F)c4)C(Cc4ccccc4)C3)CC2)CC1` (centres unmarked) [Compound 113], the IC50 in experiment [1] is 1 nM; in experiment [2], 398 nM; in experiment [3], 398 nM.

With `O=C(c1snnc1CO)N1CCC(N2CCN(C3CCN(C(=O)c4cc(C(F)(F)F)cc(C(F)(F)F)c4)C(Cc4ccccc4)C3)CC2)CC1` (centres unmarked) [Compound 144], the IC50 in experiment [2] was 1260 nM; in experiment [3], 631 nM.

With `Cc1cc(C)cc(C(=O)N2CCC(N3CCN(C4CCN(C(=O)c5cc(C(F)(F)F)cc(C(F)(F)F)c5)C(Cc5ccccc5)C4)CC3)CC2Cc2ccccc2)c1` (single isomer, unassigned) [Compound 10], the IC50 in experiment [1] was 50.1 nM; in experiment [2], 398 nM; in experiment [3], 631 nM.

For the compound `O=C(c1cccnc1)N1CCC(N2CCN([C@H]3CCN(C(=O)c4cc(C(F)(F)F)cc(C(F)(F)F)c4)[C@H](Cc4ccccc4)C3)CC2)CC1` [Compound 80], the IC50 in experiment [1] is 0.501 nM; in experiment [2] it was 794 nM; in experiment [3], 251 nM.

Take `Cc1cc(C)cc(CN2CCC(N3CCN([C@H]4CCN(C(=O)c5cc(C(F)(F)F)cc(C(F)(F)F)c5)[C@H](Cc5ccccc5)C4)CC3)CC2)c1` [Compound 22]: the IC50 is 0.398 nM in experiment [1], 631 nM in experiment [2] and 316 nM in experiment [3].

As to `CC(C)(C)OC(=O)N1Cc2ccccc2C[C@H]1C(=O)N1CCC(N2CCN([C@H]3CCN(C(=O)c4cc(C(F)(F)F)cc(C(F)(F)F)c4)[C@H](Cc4ccccc4)C3)CC2)CC1` [Compound 90], the values for the IC50 in experiment [1], in experiment [2] and in experiment [3] were 31.6 nM, 316 nM and 126 nM, respectively.

As for `COc1cc(C(=O)N2CCC(N3CCN([C@H]4CCN(C(=O)c5cc(C(F)(F)F)cc(C(F)(F)F)c5)[C@H](Cc5ccccc5)C4)CC3)CC2)cc(OC)c1OC` [Compound 65], the IC50 is 3.98 nM in experiment [1], 631 nM in experiment [2] and 251 nM in experiment [3].

For `O=C(c1ccsc1)N1CCC(N2CCN(C3CCN(C(=O)c4cc(C(F)(F)F)cc(C(F)(F)F)c4)C(Cc4ccccc4)C3)CC2)CC1` (centres unmarked) [Compound 5], the IC50 in experiment [1] was 0.1 nM; in experiment [2] it was 794 nM; in experiment [3] it was 501 nM.

`Cc1cccc(C)c1NC(=O)CN1CCC(N2CCN([C@H]3CCN(C(=O)c4cc(C(F)(F)F)cc(C(F)(F)F)c4)[C@H](Cc4ccccc4)C3)CC2)CC1` [Compound 97]: the IC50 in experiment [1] was 0.316 nM; in experiment [2], 501 nM; in experiment [3], 398 nM.

Regarding `Cc1ccc(O)c(C(=O)N2CCC(N3CCN([C@H]4CCN(C(=O)c5cc(C(F)(F)F)cc(C(F)(F)F)c5)[C@H](Cc5ccccc5)C4)CC3)CC2)c1` [Compound 56], the IC50 in experiment [1] was 1 nM; in experiment [2] it was 501 nM; in experiment [3], 200 nM.

As to `N#Cc1cccc(C(=O)N2CCC(N3CCN([C@H]4CCN(C(=O)c5cc(C(F)(F)F)cc(C(F)(F)F)c5)[C@H](Cc5ccccc5)C4)CC3)CC2)c1` [Compound 39], the results for the IC50 in experiment [1], in experiment [2] and in experiment [3] were 0.794 nM, 1000 nM and 1000 nM, respectively.

As for `O=C(c1cc(F)c(F)cc1F)N1CCC(N2CCN([C@H]3CCN(C(=O)c4cc(C(F)(F)F)cc(C(F)(F)F)c4)[C@H](Cc4ccccc4)C3)CC2)CC1` [Compound 62], the IC50 in experiment [1] was 0.631 nM; in experiment [2], 398 nM; in experiment [3], 251 nM.
